Molecules are shown by their SMILES.

In one experiment the target is ACL (Homo sapiens (Human), UniProt P53396). Kind of experiment: ADP-Glo Assay.
ACL, sequence (P53396 other isoform, or with tags, fused parts or gaps isoform P53396-2): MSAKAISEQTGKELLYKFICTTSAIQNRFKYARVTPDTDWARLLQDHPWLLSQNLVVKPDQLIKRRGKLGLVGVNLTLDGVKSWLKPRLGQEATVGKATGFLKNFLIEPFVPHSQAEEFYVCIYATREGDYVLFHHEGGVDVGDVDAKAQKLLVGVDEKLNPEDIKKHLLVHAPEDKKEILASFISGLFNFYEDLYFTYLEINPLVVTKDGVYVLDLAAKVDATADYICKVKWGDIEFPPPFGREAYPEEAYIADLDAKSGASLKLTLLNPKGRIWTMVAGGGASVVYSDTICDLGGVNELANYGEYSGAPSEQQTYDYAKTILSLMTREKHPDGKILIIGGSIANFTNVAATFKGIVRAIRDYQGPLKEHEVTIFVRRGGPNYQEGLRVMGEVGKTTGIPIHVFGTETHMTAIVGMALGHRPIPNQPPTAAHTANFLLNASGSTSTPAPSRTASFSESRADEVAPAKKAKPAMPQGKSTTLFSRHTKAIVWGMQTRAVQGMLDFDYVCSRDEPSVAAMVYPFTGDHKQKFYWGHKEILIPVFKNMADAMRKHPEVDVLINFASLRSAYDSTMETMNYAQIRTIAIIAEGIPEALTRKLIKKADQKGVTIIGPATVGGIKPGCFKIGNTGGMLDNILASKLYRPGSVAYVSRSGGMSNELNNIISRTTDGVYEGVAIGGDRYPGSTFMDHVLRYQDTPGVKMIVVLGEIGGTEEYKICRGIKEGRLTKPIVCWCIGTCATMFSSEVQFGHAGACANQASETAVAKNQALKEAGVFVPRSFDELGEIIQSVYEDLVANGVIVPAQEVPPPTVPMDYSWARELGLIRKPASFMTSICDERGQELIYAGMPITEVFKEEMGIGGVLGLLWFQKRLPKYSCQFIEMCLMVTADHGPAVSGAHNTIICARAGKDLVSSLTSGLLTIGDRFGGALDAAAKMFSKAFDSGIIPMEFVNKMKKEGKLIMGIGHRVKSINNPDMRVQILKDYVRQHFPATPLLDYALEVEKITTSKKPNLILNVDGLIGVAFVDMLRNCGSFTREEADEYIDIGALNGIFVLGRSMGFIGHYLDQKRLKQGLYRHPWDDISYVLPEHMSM
Details: not given
In general terms: ADP-Glo first removes unused ATP, then detects ADP through luciferase.
Take `O=C(O)c1sccc1NS(=O)(=O)c1cc(Cl)cc(Cl)c1` [I-362, 3-((3,5-dichlorophenyl)sulfonamido)thiophene-2-carboxylic Acid]: the half-maximal inhibitory concentration (IC50) fell in the range of 0.5 to 20 µM.

For `O=C(O)c1c(NS(=O)(=O)c2cc(Cl)cc(Cl)c2)sc2c1CCCC2` [I-363, 2-((3,5-dichlorophenyl)sulfonamido)-4,5,6,7-tetrahydrobenzo[b]thiophene-3-carboxylic Acid], the IC50 fell in the range of 0.5 to 20 µM.

As for `Cc1c(-c2ccccc2)ccc(C(=O)O)c1NS(=O)(=O)c1cc(Cl)cc(C(F)(F)F)c1` [I-365, 3-((3-chloro-5-(trifluoromethyl)phenyl)sulfonamido)-2-methyl-[1,1′-biphenyl]-4-carboxylic Acid], the half-maximal inhibitory concentration (IC50) was 0.5 to 20 µM.

Regarding `O=C(c1c[nH]c(=O)c(S(=O)(=O)Nc2cc(-c3ccccc3)ccc2F)c1)N1CCC1` [I-369, 5-(azetidine-1-carbonyl)-N-(4-fluoro-[1,1′-biphenyl]-3-yl)-2-oxo-1,2-dihydropyridine-3-sulfonamide], the IC50 lay within 0.5 to 20 µM.

In turn, `CN(c1cc(-c2ccccc2)ccc1F)S(=O)(=O)c1cc(Cl)cc(Br)c1O` [I-370, 3-bromo-5-chloro-N-(4-fluoro-[1,1′-biphenyl]-3-yl)-2-hydroxy-N-methylbenzenesulfonamide] displayed an IC50 of 0.5 to 20 µM.

Compound `O=S(=O)(Nc1ccc(F)cc1F)c1cc(Cl)cc(-c2nn[nH]n2)c1` [I-373, 3-chloro-N-(2,4-difluorophenyl)-5-(2H-1,2,3,4-tetrazol-5-yl)benzene-1-sulfonamide] gave an IC50 above 20 µM.

Compound `COc1ccc(-c2ccccc2)cc1NS(=O)(=O)c1cc(C(=O)N2CCC2)cc(Cl)c1OC` [I-374, 5-(azetidine-1-carbonyl)-3-chloro-2-methoxy-N-[4-methoxy-[1,1-biphenyl]-3-yl]benzene-1-sulfonamide] displayed an IC50 above 20 µM.

On to `O=C(COc1c(Cl)cc(C(=O)N2CCC2)cc1S(=O)(=O)Nc1cc(-c2ccccc2)c(F)cc1F)OCc1ccccc1` [I-375, benzyl 2-(4-(azetidine-1-carbonyl)-2-chloro-6-(N-(4,6-difluoro-[1,1′-biphenyl]-3-yl)sulfamoyl)phenoxy)acetate], for which the half-inhibitory concentration (IC50) is above 20 µM.

In the case of `O=S(=O)(Nc1cc(-c2ccccc2)c(F)cc1F)c1cccc2ccccc12` [I-376, N-(4,6-difluoro-[1,1 biphenyl]-3-yl)naphthalene-1-sulfonamide], the IC50 is above 20 µM.

In turn, `O=S(=O)(Nc1cc(-c2ccccc2)ccc1F)c1cccc2cc[nH]c12` [I-377, N-[4-fluoro-[1,1-biphenyl]-3-yl]-1H-indole-7-sulfonamide] came in with a half-inhibitory concentration (IC50) above 20 µM.

Turning to `COc1c(Cl)cc(C(=O)N2CCC2)cc1S(=O)(=O)Nc1cc(-c2ccccc2)c(F)cc1F` [I-378, 5-(azetidine-1-carbonyl)-3-chloro-N-[4,6-difluoro-[1,1-biphenyl]-3-yl]-2-methoxybenzene-1-sulfonamide], the 50% inhibitory concentration (IC50) was above 20 µM.

As for `O=C(O)COc1ccccc1S(=O)(=O)Nc1cc(-c2ccccc2)ccc1F` [I-379, 2-(2-(N-(4-fluoro-[1,1′-biphenyl]-3-yl)sulfamoyl)phenoxy)acetic Acid], the IC50 was above 20 µM.

As for `COc1ccc(Br)cc1S(=O)(=O)Nc1cc(-c2ccccc2)c(F)cc1F` [I-380, 5-bromo-N-[4,6-difluoro-[1,1-bipheny1]-3-yl]-2-methoxybenzene-1-sulfonamide], the IC50 was above 20 µM.

As for `N#Cc1cc(S(=O)(=O)Nc2cc(-c3ccccc3)c(F)cc2F)ccc1F` [I-381, 3-cyano-N-(4,6-difluoro-[1,1′-biphenyl]-3-yl)-4-fluorobenzenesulfonamide], the IC50 was above 20 µM.

For `CC(C)(C)OC(=O)n1ccc2cccc(S(=O)(=O)Nc3cc(-c4ccccc4)ccc3F)c21` [I-382, tert-butyl 7-(N-(4-fluoro-[1,1′-biphenyl]-3-yl)sulfamoyl)-1H-indole-1-carboxylate], the IC50 was above 20 µM.

Staying with this experiment, now noted: read-out: ACL-ADP-Glo (IC50); 3 nM ACL, 15 μM ATP, 3 μM CoA, 300 μM Citrate.
On to `O=C(O)c1ccc(-c2ccccc2)cc1NCc1cc(Cl)cc(Cl)c1` [I-371, 3-((3,5-dichlorobenzyl)amino)-[1,1′-biphenyl]-4-carboxylic Acid], for which the IC50 fell in the range of 0.5 to 20 µM.

What is called IC50 is the concentration at which inhibition is half-maximal.

These data come from patent US11555012B2 (Nimbus Artemis, Inc., priority 2018, dated 2023).
